Experimental data reported in publication PMC2248166, “Quantitative peptide binding motifs for 19 human and mouse MHC class I molecules derived using positional scanning combinatorial peptide libraries” (Immunome Research, 2008).
Where a SMILES comes first, the peptide text is derived from it.

Each molecule was assayed against HLA B*1503 (Homo sapiens, UniProt P01889, A329T/A93T/A95T/C349S/D201E/D98Y/E187L/E204Q/K202T/N87E/Q94N/R155S/R180L/S121R/S35A/V306I/V36M/Y140S/Y91S) (assay: biochemical).
Assay type: binding

SMILES	IC50 [nM]
CC[C@H](C)[C@H](N)C(=O)N[C@@H](CCC(N)=O)C(=O)N[C@@H](Cc1ccccc1)C(=O)N[C@@H](CCSC)C(=O)N[C@@H](Cc1c[nH]cn1)C(=O)N[C@@H](CCC(=O)O)C(=O)N[C@@H](CCC(N)=O)C(=O)NCC(=O)N[C@@H](Cc1ccc(O)cc1)C(=O)O [3102.1159] (H-IQFMHEQGY-OH)	3.7
CC[C@H](C)[C@H](NC(=O)[C@@H](NC(=O)[C@H](Cc1ccccc1)NC(=O)[C@H](CCSC)NC(=O)[C@@H](NC(=O)[C@H](CCCCN)NC(=O)[C@@H](N)[C@@H](C)O)C(C)C)C(C)C)C(=O)N[C@@H](CCCNC(=N)N)C(=O)N[C@@H](Cc1ccccc1)C(=O)O [3102.1199] (H-TKVMFVIRF-OH)	31
C[C@H](NC(=O)[C@H](Cc1c[nH]c2ccccc12)NC(=O)[C@H](CO)NC(=O)CNC(=O)[C@@H](N)CCCNC(=N)N)C(=O)N[C@H](C(=O)N[C@@H](CO)C(=O)N[C@@H](CO)C(=O)N[C@@H](Cc1ccccc1)C(=O)O)[C@@H](C)O [3102.1323] (H-RGSWATSSF-OH)	11
CC[C@H](C)[C@H](NC(=O)[C@H](CC(N)=O)NC(=O)[C@H](CCSC)NC(=O)[C@@H](NC(=O)[C@H](CCSC)NC(=O)[C@@H](N)CC(C)C)[C@@H](C)O)C(=O)N[C@H](C(=O)N[C@@H](CC(N)=O)C(=O)N[C@@H](Cc1ccccc1)C(=O)O)C(C)C [3102.1344] (H-LMTMNIVNF-OH)	17
CSCC[C@H](NC(=O)[C@@H](N)[C@@H](C)O)C(=O)N[C@H](C(=O)N[C@@H](CC(N)=O)C(=O)N[C@@H](CO)C(=O)N[C@@H](CC(C)C)C(=O)N[C@H](C(=O)N[C@@H](Cc1ccc(O)cc1)C(=O)N[C@@H](Cc1ccccc1)C(=O)O)[C@@H](C)O)C(C)C [3102.1160] (H-TMVNSLTYF-OH)	0.13
NCCCC[C@H](NC(=O)[C@H](CC(=O)O)NC(=O)[C@H](CC(N)=O)NC(=O)[C@H](CC(N)=O)NC(=O)[C@H](Cc1ccc(O)cc1)NC(=O)[C@H](CCCCN)NC(=O)[C@@H](N)CCCCN)C(=O)N[C@@H](CO)C(=O)N[C@@H](Cc1ccccc1)C(=O)O [3102.1179] (H-KKYNNDKSF-OH)	0.078
CC(C)[C@H](NC(=O)[C@H](Cc1ccccc1)NC(=O)[C@H](Cc1c[nH]cn1)NC(=O)[C@H](CCC(N)=O)NC(=O)[C@@H](N)Cc1ccc(O)cc1)C(=O)N[C@@H](C)C(=O)N[C@@H](CCCNC(=N)N)C(=O)N[C@H](C(=O)N[C@@H](Cc1ccccc1)C(=O)O)C(C)C [3102.1278] (H-YQHFVARVF-OH)	0.4
CSCC[C@H](NC(=O)[C@H](CCCCN)NC(=O)[C@@H](N)CCCCN)C(=O)N[C@@H](CCC(N)=O)C(=O)N[C@@H](CO)C(=O)N[C@@H](Cc1ccc(O)cc1)C(=O)N[C@@H](CC(N)=O)C(=O)N[C@@H](CO)C(=O)N[C@H](C(=O)O)C(C)C [3102.1143] (H-KKMQSYNSV-OH)	2.8
CSCC[C@H](NC(=O)[C@H](CCCCN)NC(=O)[C@H](CCC(N)=O)NC(=O)[C@@H](N)CCCCN)C(=O)N[C@@H](Cc1ccccc1)C(=O)N[C@@H](CO)C(=O)N[C@@H](CC(N)=O)C(=O)N[C@@H](CC(N)=O)C(=O)N[C@H](C(=O)O)C(C)C [3102.1248] (H-KQKMFSNNV-OH)	19
CC[C@H](C)[C@H](NC(=O)CNC(=O)[C@H](C)NC(=O)[C@H](Cc1ccc(O)cc1)NC(=O)[C@H](CCCCN)NC(=O)[C@@H](N)CO)C(=O)N[C@@H](CC(N)=O)C(=O)N[C@H](C(=O)N[C@@H](CC(C)C)C(=O)O)[C@@H](C)CC [3102.1077] (H-SKYAGINIL-OH)	0.27
CC[C@H](C)[C@H](NC(=O)[C@H](Cc1c[nH]cn1)NC(=O)[C@H](CC(N)=O)NC(=O)[C@H](CCCCN)NC(=O)[C@@H](N)CCCNC(=N)N)C(=O)N[C@@H](Cc1ccc(O)cc1)C(=O)N[C@@H](CC(N)=O)C(=O)N[C@@H](CO)C(=O)N[C@@H](Cc1ccccc1)C(=O)O [3102.1203] (H-RKNHIYNSF-OH)	0.13
CSCC[C@H](NC(=O)[C@@H](N)CCCCN)C(=O)N[C@H](C(=O)N[C@@H](Cc1ccc(O)cc1)C(=O)N[C@@H](C)C(=O)N[C@@H](CC(C)C)C(=O)N[C@@H](CC(C)C)C(=O)N[C@@H](CC(C)C)C(=O)N[C@@H](Cc1ccc(O)cc1)C(=O)O)C(C)C [3102.1336] (H-KMVYALLLY-OH)	2.7
CC(C)C[C@H](N)C(=O)N[C@@H](CCCCN)C(=O)N[C@H](C(=O)N[C@H](C(=O)N[C@@H](Cc1ccccc1)C(=O)N[C@H](C(=O)N[C@@H](Cc1c[nH]cn1)C(=O)N1CCC[C@H]1C(=O)N[C@@H](Cc1ccccc1)C(=O)O)C(C)C)[C@@H](C)O)[C@@H](C)O [3102.1294] (H-LKTTFVHPF-OH)	1.3
CC(C)C[C@H](NC(=O)[C@H](Cc1ccccc1)NC(=O)[C@H](CCCNC(=N)N)NC(=O)[C@@H](N)CC(C)C)C(=O)N[C@@H](CCC(=O)O)C(=O)N[C@@H](CCCCN)C(=O)N[C@H](C(=O)N[C@@H](CO)C(=O)N[C@@H](Cc1ccccc1)C(=O)O)[C@@H](C)O [3102.1139] (H-LRFLEKTSF-OH)	2.2
CC[C@H](C)[C@H](NC(=O)[C@H](Cc1c[nH]cn1)NC(=O)[C@@H](NC(=O)[C@H](Cc1ccc(O)cc1)NC(=O)[C@H](CCC(N)=O)NC(=O)[C@@H](N)CC(C)C)C(C)C)C(=O)N[C@@H](CC(N)=O)C(=O)N[C@@H](CCC(=O)O)C(=O)N[C@@H](CC(C)C)C(=O)O [3102.1187] (H-LQYVHINEL-OH)	3.7
CC(C)C[C@H](NC(=O)[C@H](CO)NC(=O)[C@H](CC(C)C)NC(=O)CNC(=O)[C@H](CS)NC(=O)[C@H](CO)NC(=O)[C@H](Cc1ccccc1)NC(=O)[C@H](CCCCN)NC(=O)[C@@H](N)Cc1ccc(O)cc1)C(=O)O [3102.1230] (H-YKFSCGLSL-OH)	0.13
CC(C)[C@H](NC(=O)[C@@H](NC(=O)[C@H](C)NC(=O)[C@H](Cc1ccc(O)cc1)NC(=O)[C@@H](NC(=O)[C@H](C)NC(=O)[C@@H](N)CO)[C@@H](C)O)[C@@H](C)O)C(=O)N1CCC[C@H]1C(=O)N[C@@H](Cc1ccccc1)C(=O)O [3102.1306] (H-SATYATVPF-OH)	12
CC(C)C[C@H](NC(=O)[C@H](CCC(=O)O)NC(=O)[C@@H](NC(=O)[C@H](CO)NC(=O)[C@H](CO)NC(=O)[C@@H](NC(=O)[C@H](CCC(N)=O)NC(=O)[C@@H](N)CO)C(C)C)[C@@H](C)O)C(=O)N[C@@H](Cc1ccccc1)C(=O)O [3102.1264] (H-SQVSSTELF-OH)	1.8
CC[C@H](C)[C@H](N)C(=O)N[C@@H](CCSC)C(=O)N[C@@H](C)C(=O)N[C@@H](CC(C)C)C(=O)N[C@H](C(=O)N[C@H](C(=O)N[C@@H](CO)C(=O)N[C@H](C(=O)N[C@@H](Cc1ccccc1)C(=O)O)[C@@H](C)CC)C(C)C)[C@@H](C)CC [3102.1093] (H-IMALIVSIF-OH)	4.5
CC[C@H](C)[C@H](NC(=O)[C@H](CCSC)NC(=O)[C@H](CC(=O)O)NC(=O)[C@H](CC(N)=O)NC(=O)[C@@H](NC(=O)[C@H](CCSC)NC(=O)[C@H](CCC(N)=O)NC(=O)[C@@H](N)CCCNC(=N)N)C(C)C)C(=O)N[C@@H](Cc1ccccc1)C(=O)O [3102.1102] (H-RQMVNDMIF-OH)	1.3
CC[C@H](C)[C@H](NC(=O)[C@H](CCC(N)=O)NC(=O)[C@H](CC(N)=O)NC(=O)[C@H](CC(=O)O)NC(=O)[C@H](CCCNC(=N)N)NC(=O)[C@H](C)NC(=O)[C@@H](N)Cc1ccccc1)C(=O)N[C@@H](CO)C(=O)N[C@@H](Cc1ccccc1)C(=O)O [3102.1132] (H-FARDNQISF-OH)	0.2
CC[C@H](C)[C@H](NC(=O)[C@H](CO)NC(=O)[C@H](CO)NC(=O)[C@H](CO)NC(=O)[C@H](Cc1ccc(O)cc1)NC(=O)[C@H](C)NC(=O)[C@H](CC(C)C)NC(=O)[C@@H](N)C(C)C)C(=O)N[C@@H](Cc1ccccc1)C(=O)O [3102.1150] (H-VLAYSSSIF-OH)	5.4
CC[C@H](C)[C@H](N)C(=O)N[C@@H](CCSC)C(=O)N[C@@H](CO)C(=O)N[C@@H](CC(C)C)C(=O)N[C@@H](Cc1ccccc1)C(=O)N[C@@H](CO)C(=O)N[C@H](C(=O)N[C@@H](CO)C(=O)N[C@@H](C)C(=O)O)[C@@H](C)O [3102.1063] (H-IMSLFSTSA-OH)	7.7
CC(C)C[C@H](NC(=O)[C@H](CCCCN)NC(=O)[C@H](CC(N)=O)NC(=O)[C@@H](NC(=O)[C@H](Cc1ccccc1)NC(=O)[C@H](CS)NC(=O)[C@@H](NC(=O)[C@H](CCCCN)NC(=O)[C@@H](N)CCCCN)C(C)C)C(C)C)C(=O)O [3102.1086] (H-KKVCFVNKL-OH)	4.5
CSCC[C@H](NC(=O)[C@H](CC(C)C)NC(=O)[C@H](CCSC)NC(=O)[C@@H](N)Cc1ccccc1)C(=O)N[C@@H](CCC(=O)O)C(=O)N[C@H](C(=O)N[C@@H](CCSC)C(=O)N[C@@H](Cc1ccccc1)C(=O)N[C@@H](Cc1ccccc1)C(=O)O)[C@@H](C)O [3102.1089] (H-FMLMETMFF-OH)	0.19
CC[C@H](C)[C@H](NC(=O)[C@H](CO)NC(=O)[C@@H](NC(=O)[C@H](CCC(N)=O)NC(=O)[C@H](CO)NC(=O)[C@H](CC(N)=O)NC(=O)[C@H](Cc1ccccc1)NC(=O)[C@H](CCCCN)NC(=O)[C@@H](N)Cc1ccccc1)C(C)C)C(=O)O [3102.1116] (H-FKFNSQVSI-OH)	1.2
CSCC[C@H](NC(=O)[C@@H](N)CCCCN)C(=O)N[C@@H](C)C(=O)N[C@@H](C)C(=O)N[C@@H](CC(=O)O)C(=O)N[C@@H](CCCNC(=N)N)C(=O)NCC(=O)N[C@@H](C)C(=O)N[C@@H](Cc1ccccc1)C(=O)O [3102.1255] (H-KMAADRGAF-OH)	2.5
CC[C@H](C)[C@H](NC(=O)[C@@H]1CCCN1C(=O)[C@H](CO)NC(=O)CNC(=O)[C@H](CC(=O)O)NC(=O)[C@H](CC(C)C)NC(=O)[C@@H](NC(=O)[C@H](CCCCN)NC(=O)[C@@H](N)Cc1ccccc1)C(C)C)C(=O)O [3102.1070] (H-FKVLDGSPI-OH)	0.82
CC[C@H](C)[C@H](NC(=O)[C@H](CC(C)C)NC(=O)[C@H](CCC(=O)O)NC(=O)[C@@H](NC(=O)[C@@H](NC(=O)[C@H](CCC(N)=O)NC(=O)[C@@H](N)CO)[C@@H](C)O)[C@@H](C)CC)C(=O)N[C@@H](C)C(=O)N[C@@H](Cc1ccccc1)C(=O)O [3102.1343] (H-SQTIELIAF-OH)	0.21
CSCC[C@H](NC(=O)[C@@H](N)CCCCN)C(=O)N[C@H](C(=O)N[C@@H](CCCNC(=N)N)C(=O)N[C@H](C(=O)N[C@@H](Cc1ccccc1)C(=O)N[C@@H](CC(N)=O)C(=O)N[C@@H](CCCCN)C(=O)N[C@@H](Cc1ccccc1)C(=O)O)C(C)C)[C@@H](C)O [3102.1188] (H-KMTRVFNKF-OH)	0.43
